Source: ChEMBL document CHEMBL5365457, “Selective HDAC3 Inhibitors with Potent In Vivo Antitumor Efficacy against Triple-Negative Breast Cancer” (J Med Chem, 2023)
Calls of active or inactive are those of the source. The calls are words filed in the database; no cut-off is given here.

How the values were obtained:
MDA-MB-453 = assay: Cytotoxicity against human MDA-MB-453 cells assessed as inhibition of cell growth incubated for 72 hrs by MTT assay; format: functional, cell-based; conditions: MDA-MB-453, 72 h
[1] = Half life in Wistar rat at 5 mg/kg, ip measured upto 24 hrs by HPLC analysis; format: ADME, organism-based; conditions: in vivo
[2] = Cmax in Wistar rat at 5 mg/kg, ip measured upto 24 hrs by HPLC analysis; format: ADME, organism-based; parameters: time < 24 hrs, dose 5 mg/kg, route ip; conditions: in vivo
[3] = Cmax in Wistar rat at 15 mg/kg, ip measured upto 24 hrs by HPLC analysis; format: ADME, organism-based; parameters: dose 15 mg/kg, time < 24 hrs, route ip; conditions: in vivo
[4] = AUC (0 to t) in Wistar rat at 5 mg/kg, ip measured upto 24 hrs by HPLC analysis; format: ADME, organism-based; parameters: dose 5 mg/kg, time < 24 hrs, route ip; conditions: in vivo
[5] = MRT (0 to infinity) in Wistar rat at 5 mg/kg, ip measured upto 24 hrs by HPLC analysis; format: ADME, organism-based; conditions: in vivo
[6] = Apparent volume of distribution in Wistar rat at 5 mg/kg, ip measured upto 24 hrs by HPLC analysis; format: ADME, organism-based; conditions: in vivo
[7] = Apparent oral clearance in Wistar rat at 15 mg/kg, ip measured upto 24 hrs by HPLC analysis; format: ADME, organism-based; conditions: in vivo
[8] = AUMC (0 to infinity) in Wistar rat at 15 mg/kg, ip measured upto 24 hrs by HPLC analysis; format: ADME, organism-based; conditions: in vivo
[9] = Selectivity ratio of IC50 for cytotoxicity against human MCF-10A cells assessed as inhibition of cell growth to IC50 for cytotoxicity against human MCF7 cells assessed as inhibition of cell growth; format: toxicity, cell-based; conditions: MCF-10A cells versus MCF7 cells, read-out: Ratio IC50
[10] = Selectivity ratio of IC50 for cytotoxicity against human MCF-10A cells assessed as inhibition of cell growth to IC50 for cytotoxicity against human MDA-MB-453 cells assessed as inhibition of cell growth; format: toxicity, cell-based; conditions: MCF-10A cells versus MDA-MB-453 cells, read-out: Ratio IC50
[11] = Selectivity ratio of IC50 for cytotoxicity against human HEK293 cells assessed as inhibition of cell growth to IC50 for cytotoxicity against human MDA-MB-453 cells assessed as inhibition of cell growth; format: toxicity, cell-based; conditions: HEK293 cells versus MDA-MB-453 cells, read-out: Ratio IC50
[12] = Selectivity ratio of IC50 for cytotoxicity against human HCEC cells assessed as inhibition of cell growth to IC50 for cytotoxicity against human MDA-MB-453 cells assessed as inhibition of cell growth; format: toxicity, cell-based; conditions: HCEC cells versus MDA-MB-453 cells, read-out: Ratio IC50
[13] = molecular target: T1, Histone deacetylase 3 (Mus musculus) (UniProt O88895); assay: Inhibition of HDAC3 in mouse 4T1 cells assessed as increase in acetylation of H3K9 level at 1 uM incubated for 72 hrs by western blot analysis; format: cell-based
T1 sequence (whole entry): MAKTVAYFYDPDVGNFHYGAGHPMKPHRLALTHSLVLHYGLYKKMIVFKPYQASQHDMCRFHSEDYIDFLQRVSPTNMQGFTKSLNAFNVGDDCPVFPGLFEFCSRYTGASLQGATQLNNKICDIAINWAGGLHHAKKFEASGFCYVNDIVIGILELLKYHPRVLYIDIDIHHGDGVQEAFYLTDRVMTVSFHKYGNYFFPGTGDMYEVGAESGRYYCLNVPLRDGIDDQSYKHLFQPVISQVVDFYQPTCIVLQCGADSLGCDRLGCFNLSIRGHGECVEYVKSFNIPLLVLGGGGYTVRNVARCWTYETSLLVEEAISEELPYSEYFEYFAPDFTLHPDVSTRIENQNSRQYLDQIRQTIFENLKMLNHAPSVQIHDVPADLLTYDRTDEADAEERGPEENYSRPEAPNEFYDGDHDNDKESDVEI

[14] = molecular target: T1, Histone deacetylase 3 (Mus musculus); assay: Inhibition of HDAC3 in mouse 4T1 cells assessed as increase in acetylation of H4K12 level at 1 uM incubated for 72 hrs by western blot analysis; format: cell-based
4T1 [15] = assay: Induction of apoptosis in mouse 4T1 cells assessed as increase caspase 3/7 level at 1 uM by Western blot analysis; format: functional, cell-based
4T1 [16] = assay: Induction of apoptosis in mouse 4T1 cells at 110 nM incubated for 72 hrs by annexin/PI staining based flow cytometry analysis (reference value: 1.35%); format: functional
4T1 [17] = assay: Induction of apoptosis in mouse 4T1 cells assessed as cell shrinkage incubated for 72 hrs by acridine orange staining based analysis; format: functional
MDA-MB-231 = assay: Cytotoxicity against wild type human MDA-MB-231 cells assessed as reduction in cell viability incubated for 72 hrs in presence of oxaliplatin by MTT assay; format: functional, cell-based; conditions: MDA-MB-231, 72 h
[18] = Cytotoxicity against Oxaliplatin-resistant human MDA-MB-231 cell assessed as reduction in cell viability incubated for 72 hrs by MTT assay; format: functional, cell-based; conditions: Oxaliplatin-resistant MDA-MB-231 cell
4T1 [19] = assay: Antitumor activity against mouse 4T1 cells implanted in BALB/c mouse assessed as reduction in tumor volume at 50 to 100 mg/kg, ip administered 5 times a week for 21 days; format: functional, organism-based; conditions: dose 50-100 mg/kg, time 21.0 day
4T1 [20] = assay: Antitumor activity against mouse 4T1 cells implanted in BALB/c mouse assessed as reduction in tumor growth at 5 to 15 mg/kg, ip administered 5 times a week for 21 days; format: functional, organism-based; conditions: dose 5-15 mg/kg, time 21.0 day
[21] = Toxicity against BALB/c mouse implanted with mouse 4T1 cells assessed as body weight loss at 5 to 15 mg/kg,ip administered 5 times a week for 21 days; format: organism-based; conditions: in vivo, 504 h, dose 5-15 mg/kg, time 21 day
[22] = Toxicity against BALB/c mouse implanted with mouse 4T1 cells assessed as body weight gain at 5 to 15 mg/kg,ip administered 5 times a week for 21 days; format: organism-based; conditions: in vivo, 504 h, dose 5-15 mg/kg, time 21 day
4T1 [23] = assay: Antitumor activity against mouse 4T1 cells implanted in BALB/c mouse assessed as tumor growth inhibition at 15 mg/kg, ip measured on day 14; format: functional; conditions: 4T1, 336 h, time 14 day, read-out: TGI
Mus musculus = assay: Induction of ROS generation in mouse implanted with mouse 4T1 cells at 15 mg/kg, ip administered for 21 days by DCFH-DA staining based microscopic analysis; format: functional, organism-based; conditions: time 21.0 day
[24] = Toxicity in BALB/c mouse implanted with mouse 4T1 cells assessed as kidney fibrosis at 5 to 15 mg/kg, ip measured after 21 days; format: organism-based; conditions: in vivo, 504 h, dose 5-15 mg/kg, time 21 day
4T1 [25] = assay: In-vivo inhibition of HDAC3 in ip dosed BALB/c mouse implanted with mouse 4T1 cells assessed as hyperacetylation of H3K9 level by Western blot analysis; format: functional, organism-based; conditions: dose 5-15 mg/kg
4T1 [26] = assay: In-vivo inhibition of HDAC3 in ip dosed BALB/c mouse implanted with mouse 4T1 cells assessed as hyperacetylation of H4K12 level by Western blot analysis; format: functional, organism-based; conditions: dose 5-15 mg/kg
4T1 [27] = assay: In-vivo inhibition of HDAC3 in BALB/c mouse implanted with mouse 4T1 cells assessed as increase in acetylation of SMC3 level at 5 to 15 mg/kg, ip by Western blot analysis; format: functional, organism-based; conditions: dose 5-15 mg/kg
4T1 [28] = assay: Antitumor activity against mouse 4T1 cells implanted in BALB/c mouse assessed as reduction in CD44 protein level in tumor at 5 to 15 mg/kg, ip by Western blot analysis; format: functional, organism-based; conditions: dose 5-15 mg/kg

Q: For CCCNNC(=O)c1cnc(NCc2ccc(OC)cc2)cn1, which IC50 (MDA-MB-453) is on record?
A: 1720 nM

Q: What about the half-life [1] of the same compound?
A: 7.19 h

Q: And the Cmax [2]?
A: 1110 ng/mL

Q: And the Cmax [3]?
A: 9580 ng/mL

Q: And the AUC(0-t) at 24 h [4]?
A: 4050 ng·h/mL

Q: What about the MRT inf [5] of the same compound?
A: 5.73 h

Q: And the Vz/F [6]?
A: 7.01 (mg/kg)/(ug/ml)

Q: And the CL/F [7]?
A: 1.3 (mg/kg)/(ug/ml).hr

Q: And the AUMC [8]?
A: 114.5 ug/ml.hr^2

Q: What about the selectivity ratio [9] of the same compound?
A: 385

Q: What about the selectivity ratio [10] of the same compound?
A: 385

Q: What about the selectivity ratio [11] of the same compound?
A: 286

Q: And the selectivity ratio [12]?
A: 286

Q: And the inhibition [13]?
A: Active

Q: And the inhibition [14]?
A: Active

Q: And the Activity (4T1 [15])?
A: Active

Q: What about the Activity (4T1 [16]) of the same compound?
A: 36.8%

Q: What about the Activity (4T1 [17]) of the same compound?
A: Active

Q: And the IC50 (MDA-MB-231)?
A: 403 nM

Q: What about the IC50 [18] of the same compound?
A: 754 nM

Q: What about the Activity (4T1 [19]) of the same compound?
A: Active

Q: And the Activity (4T1 [20])?
A: Active

Q: What about the Activity [21] of the same compound?
A: Non-Toxic

Q: What about the Activity [22] of the same compound?
A: Non-Toxic

Q: And the inhibition in vivo at 15 mg/kg (4T1 [23])?
A: 97.3%

Q: What about the Activity (Mus musculus) of the same compound?
A: Active

Q: And the Activity [24]?
A: Non-Toxic

Q: And the inhibition (4T1 [25])?
A: Dose-Dependent Effect

Q: What about the inhibition (4T1 [26]) of the same compound?
A: Dose-Dependent Effect

Q: What about the inhibition (4T1 [27]) of the same compound?
A: Active

Q: And the Activity (4T1 [28])?
A: Active
